Test results: patent US20080280862A1, “Methods, compositions, and kits for the treatment of pain” (priority 2007, published 2008)

Tested on: TNFα
Assay: TNFα secretion by human white blood cells stimulated with PMA/ionomycin, synergy score
Assay type: cell-based
Set-up: key: S = Σ Idata(Idata−ILoewe) × ln dilution factors; volume over Loewe additivity
Conditions: PBMC stimulated with PMA/Ionomycin
Protocol: A 100 μl suspension of diluted human white blood cells contained within each well of a polystyrene 384-well plate (NalgeNunc) was stimulated to secrete TNFα by treatment with a final concentration of 10 ng/mL phorbol 12-myristate 13-acetate (Sigma, P-1585) and 750 ng/mL ionomycin (Sigma, I-0634). Various concentrations of each test compound were added at the time of stimulation. After 16-18 hours of incubation at 37° C. in a humidified incubator, the plate was centrifuged and the supernatant transferred to a white opaque polystyrene 384-well plate (NalgeNunc, Maxisorb) coated with an anti-TNFα antibody (PharMingen, #551220). After a two-hour incubation, the plate was washed (Tecan PowerWasher 384) with PBS containing 0.1% Tween 20 and incubated for an additional one hour with another anti-TNFα antibody that was biotin labeled (PharMingen, #554511) and HRP coupled to strepavidin (PharMingen, #13047E). After the plate was washed with 0.1% Tween 20/PBS, an HRP-luminescent substrate was added to each well and light intensity measured using a LJL Analyst plate luminometer.
The synergy scores calculated for the various combinations of compounds set forth in Table 3 was calculated by the formula S=log fX log fYΣIdata(Idata−ILoewe), summed over all non-single-agent concentration pairs, and where log fX,Y are the natural logarithm of the dilution factors used for each single agent. This effectively calculates a volume between the measured and Loewe additive response surfaces, weighted towards high inhibition and corrected for varying dilution factors.

[1] = combination with Hydrocortisone

Row | Structure (SMILES) | Synergy Score based on TNF-α inhibition (combination with Betamethasone) | Synergy Score based on TNF-α inhibition (combination with Budesonide) | Synergy Score based on TNF-α inhibition (combination with Dexamethasone) | Synergy Score based on TNF-α inhibition [1] | Synergy Score based on TNF-α inhibition (combination with Prednisolone) | Synergy Score based on TNF-α inhibition (combination with Triamcinolone) | Synergy Score based on TNF-α inhibition (combination with Clobetasol) | Synergy Score based on TNF-α inhibition (combination with Diflorasone)
1 | CN1CCC(=C2c3ccccc3C=Cc3ccccc32)CC1 [Cyproheptadine] | 0.8 | 0.56 | 1.3 | 0.75 | 1.3 | 0.57 |  | 
2 | CNCCCN1c2ccccc2CCc2ccccc21 [Desipramine] | 0.69 | 1 | 1.6 | 0.74 | 1.3 | 0.44 | 0.52 | 0.5
3 | CN(C)CCCN1c2ccccc2CCc2ccccc21 [Imipramine] | 0.34 | 0.88 |  | 0.82 | 0.61 | 0.34 |  | 0.43
4 | CN1CCC(=C2c3ccccc3CC(=O)c3sccc32)CC1 [Ketotifen] | 0.37 | 0.15 | 1.6 | 0.31 | 0.78 | 0.15 |  | 
5 | CNCCCC1c2ccccc2C=Cc2ccccc21 [Protriptyline] | 0.53 | 1.2 | 1.3 | 0.68 | 1.1 | 0.37 | 0.95 | 0.67
